Reference: ChEMBL document CHEMBL1201862, “PubChem BioAssay data set” (2004)
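96-well plates; 48 h exposure; 5 concentrations. Endpoints by linear interpolation between flanking doses. Not reached: highest tested concentration assigned. GI50 is the concentration that inhibits growth by half.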 Calls of active or inactive are those of the source. No stated cut-off is given here; in the data, active = GI50 up to about 1.1 µM and inactive = higher.

Assays:
Assay in all cases: NCI-60 cell line screen, 48 h
DU-145 = test system: DU-145
HL-60 = test system: HL-60
RPMI-8226 = test system: RPMI-8226
A549 = test system: A549
SK-OV-3 = test system: SK-OV-3
U-251 = test system: U-251
HCT-116 = test system: HCT-116
MOLT-4 = test system: MOLT-4
SN12C = test system: SN12C
UACC-257 = test system: UACC-257
T47D = test system: T47D
SNB-75 = test system: SNB-75
Hs-578T = test system: Hs-578T
OVCAR-4 = test system: OVCAR-4
MCF7 = test system: MCF7
SF-539 = test system: SF-539
BT-549 = test system: BT-549
PC-3 = test system: PC-3
HOP-92 = test system: HOP-92
RXF 393 = test system: RXF 393
SF-268 = test system: SF-268
SR = test system: SR
LOX IMVI = test system: LOX IMVI
NCI-H23 = test system: NCI-H23
NCI-H460 = test system: NCI-H460
MDA-MB-231 = test system: MDA-MB-231
SNB-19 = test system: SNB-19
CAKI-1 = test system: CAKI-1
HOP-62 = test system: HOP-62
A498 = test system: A498
ACHN = test system: ACHN
COLO 205 = test system: COLO 205
TK-10 = test system: TK-10
MDA-MB-435 = test system: MDA-MB-435
HT-29 = test system: HT-29
EKVX = test system: EKVX
K562 = test system: K562
SF-295 = test system: SF-295
SW-620 = test system: SW-620
OVCAR-8 = test system: OVCAR-8
SK-MEL-5 = test system: SK-MEL-5
CCRF-CEM = test system: CCRF-CEM
OVCAR-5 = test system: OVCAR-5
NCI/ADR-RES = test system: NCI/ADR-RES
786-0 = test system: 786-0
SK-MEL-28 = test system: SK-MEL-28
NCI-H226 = test system: NCI-H226
NCI-H522 = test system: NCI-H522
SK-MEL-2 = test system: SK-MEL-2
KM12 = test system: KM12
M14 = test system: M14
IGROV-1 = test system: IGROV-1
UO-31 = test system: UO-31
OVCAR-3 = test system: OVCAR-3
Malme-3M = test system: Malme-3M
HCT-15 = test system: HCT-15
HCC 2998 = test system: HCC 2998
UACC-62 = test system: UACC-62
MDA-N = test system: MDA-N

O=C1c2cc(I)ccc2N2CCN=C2N1Cc1ccccc1
GI50 (DU-145): > 100 µM (inactive)
GI50 (HL-60): 0.551 µM (active)
GI50 (RPMI-8226): 92.7 µM (inactive)
GI50 (A549): > 100 µM (inactive)
GI50 (SK-OV-3): 47.4 µM (inactive)
GI50 (U-251): 49.5 µM (inactive)
GI50 (HCT-116): > 100 µM (inactive)
GI50 (MOLT-4): 4.46 µM (inactive)
GI50 (SN12C): > 100 µM (inactive)
GI50 (UACC-257): > 100 µM (inactive)
GI50 (T47D): 58.7 µM (inactive)
GI50 (SNB-75): 19.7 µM (inactive)
GI50 (Hs-578T): 72.1 µM (inactive)
GI50 (OVCAR-4): > 100 µM (inactive)
GI50 (MCF7): > 100 µM (inactive)
GI50 (SF-539): 37.5 µM (inactive)
GI50 (BT-549): 49.9 µM (inactive)
GI50 (PC-3): > 100 µM (inactive)
GI50 (HOP-92): 17.7 µM (inactive)
GI50 (RXF 393): 23.7 µM (inactive)
GI50 (SF-268): > 100 µM (inactive)
GI50 (SR): 84.5 µM (inactive)
GI50 (LOX IMVI): > 100 µM (inactive)
GI50 (NCI-H23): > 100 µM (inactive)
GI50 (NCI-H460): > 100 µM (inactive)
GI50 (MDA-MB-231): > 100 µM (inactive)
GI50 (SNB-19): 63.8 µM (inactive)
GI50 (CAKI-1): > 100 µM (inactive)
GI50 (HOP-62): > 100 µM (inactive)
GI50 (A498): 0.723 µM (active)
GI50 (ACHN): 51.2 µM (inactive)
GI50 (COLO 205): > 100 µM (inactive)
GI50 (TK-10): > 100 µM (inactive)
GI50 (MDA-MB-435): > 100 µM (inactive)
GI50 (HT-29): > 100 µM (inactive)
GI50 (EKVX): 22.1 µM (inactive)
GI50 (K562): > 100 µM (inactive)
GI50 (SF-295): 73.1 µM (inactive)
GI50 (SW-620): > 100 µM (inactive)
GI50 (OVCAR-8): 55 µM (inactive)
GI50 (SK-MEL-5): > 100 µM (inactive)
GI50 (CCRF-CEM): > 100 µM (inactive)
GI50 (OVCAR-5): > 100 µM (inactive)
GI50 (NCI/ADR-RES): 70.8 µM (inactive)
GI50 (786-0): 96.6 µM (inactive)
GI50 (SK-MEL-28): > 100 µM (inactive)
GI50 (NCI-H226): > 100 µM (inactive)
GI50 (NCI-H522): > 100 µM (inactive)
GI50 (SK-MEL-2): > 100 µM (inactive)
GI50 (KM12): > 100 µM (inactive)
GI50 (M14): > 100 µM (inactive)
GI50 (IGROV-1): > 100 µM (inactive)
GI50 (UO-31): 57.4 µM (inactive)
GI50 (OVCAR-3): > 100 µM (inactive)
GI50 (Malme-3M): > 100 µM (inactive)
GI50 (HCT-15): > 100 µM

O=C1/C(=C\c2cccc(Oc3ccccc3)c2)S(=O)(=O)C(c2ccccc2)N1c1ccc(Cl)cc1 (stereo not drawn)
GI50 (HCC 2998): 56.1 µM (inactive)
GI50 (DU-145): 19.1 µM (inactive)
GI50 (HL-60): 13.2 µM (inactive)
GI50 (RPMI-8226): 12.3 µM (inactive)
GI50 (A549): 42.9 µM (inactive)
GI50 (SK-OV-3): 32.2 µM (inactive)
GI50 (U-251): 16 µM (inactive)
GI50 (HCT-116): 13.9 µM (inactive)
GI50 (MOLT-4): 4.59 µM (inactive)
GI50 (SN12C): 15.6 µM (inactive)
GI50 (UACC-257): 24 µM (inactive)
GI50 (T47D): 5.55 µM (inactive)
GI50 (SNB-75): 30.4 µM (inactive)
GI50 (OVCAR-4): 13.1 µM (inactive)
GI50 (MCF7): 12.6 µM (inactive)
GI50 (SF-539): 23.7 µM (inactive)
GI50 (BT-549): 22.6 µM (inactive)
GI50 (PC-3): 17.1 µM (inactive)
GI50 (HOP-92): 14 µM (inactive)
GI50 (RXF 393): 14.7 µM (inactive)
GI50 (SR): 8.2 µM (inactive)
GI50 (LOX IMVI): 10.4 µM (inactive)
GI50 (UACC-62): 7.82 µM (inactive)
GI50 (NCI-H23): 24.9 µM (inactive)
GI50 (NCI-H460): 14.2 µM (inactive)
GI50 (MDA-MB-231): 14.8 µM (inactive)
GI50 (SNB-19): 25.1 µM (inactive)
GI50 (CAKI-1): 13.2 µM (inactive)
GI50 (HOP-62): 27.8 µM (inactive)
GI50 (A498): 34.4 µM (inactive)
GI50 (ACHN): 12.9 µM (inactive)
GI50 (COLO 205): 14.3 µM (inactive)
GI50 (TK-10): 92.3 µM (inactive)
GI50 (MDA-MB-435): 7.94 µM (inactive)
GI50 (HT-29): 14.3 µM (inactive)
GI50 (EKVX): 23 µM (inactive)
GI50 (K562): 10.6 µM (inactive)
GI50 (SF-295): 5.28 µM (inactive)
GI50 (SW-620): 16.7 µM (inactive)
GI50 (OVCAR-8): 16.9 µM (inactive)
GI50 (SK-MEL-5): 13.6 µM (inactive)
GI50 (CCRF-CEM): 12.3 µM (inactive)
GI50 (OVCAR-5): 11.7 µM (inactive)
GI50 (NCI/ADR-RES): 17.3 µM (inactive)
GI50 (786-0): 14 µM (inactive)
GI50 (SK-MEL-28): 17.8 µM (inactive)
GI50 (NCI-H226): 43.1 µM (inactive)
GI50 (NCI-H522): 15.7 µM (inactive)
GI50 (SK-MEL-2): 8.36 µM (inactive)
GI50 (KM12): 24 µM (inactive)
GI50 (M14): 14 µM (inactive)
GI50 (IGROV-1): 14.7 µM (inactive)
GI50 (UO-31): 13.7 µM (inactive)
GI50 (OVCAR-3): 14.4 µM (inactive)
GI50 (Malme-3M): 18.2 µM (inactive)
GI50 (HCT-15): 13.7 µM
GI50 (MDA-N): 14.6 µM (inactive)
